Tests used:
[1] = test system: SiaT18 (α-2,6-sialyltransferase); assay: In vitro sialyltransferase activity assay with acceptor substrates, product detected by thin layer chromatography; assay type: biochemical, Photobacterium leiognathi JT-SHIZ-119; design: key to Formation of sialylated reaction product, SiaT18: +: A sialylated reaction product was detectable.; −: A sialylated reaction product was not detectable; conditions: TLC; for Formation of sialylated reaction product, SiaT18: E. coli protein extract, 10 mM CMP-Neu5Ac, 5 to 20 mM acceptor substrate, 16 hours; for Sialylation of acceptor substrate by SiaT18: in vitro assay, summary of Table 3
Method: (§1) The E. coli strains harboring the plasmids for siaT9 (α-2,3-sialyltransferase) and siaT18 (α-2,6-sialyltransferase) expression were grown at 30° C. in 100 ml shake flasks filled with 20 ml of 2YT medium supplemented with ampicillin 100 μg ml^−1. When the cultures reached an OD600 of 0.1 to 0.3, gene expression was induced by addition of 0.3 mM IPTG and the incubation was continued for 12 to 16 hours. Cells were harvested by centrifugation and mechanically disrupted in a defined volume of 50 mM Tris-HCl pH7.5 using glass beads. The protein extract was kept on ice until the assay started. The in vitro assay was carried out in a total volume of 25 μl including 50 mM Tris-HCl PH7.5, 5 mM MgCl2, 10 mM CMP-Neu5Ac and 5 to 20 mM of the appropriate acceptor substrates. The assay started with the addition of 3 μl protein extract and continued for 16 hours. Formation of sialylated oligosaccharides resulting from the activity of the sialyltransferases was determined by thin layer chromatography.
(§2) Therefore, samples were applied on Silica Gel 60 F254 (Merck KGaA, Darmstadt, Germany)-plates. A mixture of butanol:acetone:acetic acid:H2O (35/35/7/23 (v/v/v/v)) was used as mobile phase. For detection of the separated substances, the TLC plate was soaked with thymol reagent (0.5 g thymol solved in 95 ml ethanol, 5 ml sulfuric acid added) and heated. Sialylated reaction products run slower than their acceptor substrates.
(§3) Table 3: In vitro analyses determining sialyltransferase activities of two exemplary sialyltransferases depending on the supplied acceptor substrate. The formation of sialylated saccharides was determined by thin layer chromatography. (+) A sialylated reaction product was detectable. (−) A sialylated reaction product was not detectable.

[2] = test system: SiaT9 (α-2,3-sialyltransferase); assay: as above; assay type: biochemical, Vibrio sp. JT-FAJ-16; design: key to Formation of sialylated reaction product, SiaT9: +: A sialylated reaction product was detectable.; −: A sialylated reaction product was not detectable; conditions: TLC; for Formation of sialylated reaction product, SiaT9: E. coli protein extract, 10 mM CMP-Neu5Ac, 5 to 20 mM acceptor substrate, 16 hours; for Sialylation of acceptor substrate by SiaT9: in vitro assay, summary of Table 3
Method: as §1, §2, §3

Row | SMILES | Formation of sialylated reaction product, SiaT18 [1] | Formation of sialylated reaction product, SiaT9 [2] | Sialylation of acceptor substrate by SiaT18 [1] | Sialylation of acceptor substrate by SiaT9 [2]
1 | CC(=O)N[C@H]1[C@H](O[C@H]2[C@@H](O)[C@@H](CO)O[C@@H](O[C@H]3[C@H](O)[C@@H](O)C(O)O[C@@H]3CO)[C@@H]2O)O[C@H](CO)[C@@H](O)[C@@H]1O[C@@H]1O[C@H](CO)[C@H](O)[C@H](O)[C@H]1O (stereo partly drawn) [Lacto-N-tetraose] | + | + |  | 
2 | O=C[C@H](O)[C@@H](O)[C@@H](O)[C@H](O)CO [Galactose] | + | + | capable to sialylate | capable to sialylate
3 | OC[C@H]1O[C@@H](O[C@H]2[C@H](O)[C@@H](O)C(O)O[C@@H]2CO)[C@H](O)[C@@H](O)[C@H]1O (stereo partly drawn) [Lactose] | + | + |  | 
4 | OC[C@H]1O[C@@](CO)(O[C@H]2O[C@H](CO)[C@@H](O)[C@H](O)[C@H]2O)[C@@H](O)[C@@H]1O [Sucrose] | − | − | No sialylated oligosaccharide was detectable | No sialylated oligosaccharide was detectable
